These are literature values, as cited in patent publication US10933035B2, “Antimicrobial silicone-based wound dressings” (Covalon Technologies Inc., priority 2010, dated 2021).

For this data set the following is noted: 20° C.

Turning to `[H]/N=C(\N/C(=N/[H])NCCCCCCNC(=N)NC(=N)Nc1ccc(Cl)cc1)Nc1ccc(Cl)cc1` [Chlorhexidine], the Solubility in water is reported as 0.008 % wt/vol.
